pEC50: −log10 of the molar value.
Experiments:
[1] = biological target: T1, KCNQ2/3 channels (Homo sapiens, UniProt O43525+O43526); assay: Fluorescence assay using a voltage sensitive dye (fluorimetry); type: cell-based; conditions: CHO-K1 cells expressing KCNQ2/3 channels; for Emax: relative to retigabine = 100%, read-out: Fluorimetry % efficacy (retigabine = 100%)
T1 construct: expressed in transfected cells
Experimental: Method I. Fluorescence Assay Using a Voltage Sensitive Dye (Fluorimetry)
[…] CHO-K1 cells expressing KCNQ2/3 channels are cultivated adherently at 37° C., 5% CO2 and 95% humidity in cell culture bottles (e.g. 80 cm^2 TC flasks, Nunc) with DMEM-high glucose (Sigma Aldrich, D7777) including 10% FCS (PAN Biotech, e.g. 3302-P270521) or alternatively MEM Alpha Medium (1×, liquid, Invitrogen, #22571), 10% fetal calf serum (FCS) (Invitrogen, #10270-106, heat-inactivated) and the necessary selection antibiotics.
Before being sown out for the measurements, the cells are washed with 1×DPBS buffer Ca^2+/Mg^2+-free (e.g. Invitrogen, #14190-094) and detached from the bottom of the culture vessel by using Accutase (PAA Laboratories, #L11-007) (incubation with Accutase for 15 min at 37° C.). The cell number is determined using a CASY™ cell counter (TCC, Schärfe System). Depending on the optimal density for each individual cell line, 20,000-30,000 cells/well/100 μl are seeded onto 96-well Corning™ CellBIND™ assay plates (Flat Clear Bottom Black Polystyrene Microplates, #3340). Freshly seeded cells are then left to settle for one hour at room temperature, followed by incubation for 24 hours at 37° C., 5% CO2 and 95% humidity.
The voltage-sensitive fluorescent dye from the Membrane Potential Assay Kit (Red™ Bulk format part R8123 for FLIPR, MDS Analytical Technologies™) is prepared by dissolving the contents of one vessel Membrane Potential Assay Kit Red Component A in 200 ml of extracellular buffer (ES buffer, 120 mM NaCl, 1 mM KCl, 10 mM HEPES, 2 mM CaCl2, 2 mM MgCl2, 10 mM glucose; pH 7.4). After removal of the nutrient medium, the cells are washed once with 200 μl of ES buffer, then loaded for 45 min at room temperature in 100 μl of dye solution in the dark.
Fluorescence measurements are carried out in a BMG Labtech FLUOstar™, BMG Labtech NOVOstar™ or BMG Labtech POLARstar™ instrument (525 nm excitation, 560 nm emission, Bottom Read mode). After incubation with the dye, 50 μl of the test substances in the desired concentrations, or 50 μl of ES buffer for control purposes, are applied to the wells of the assay plate and incubated for 30 min at room temperature while being shielded from light. The fluorescence intensity of the dye is then measured for 5 min and the fluorescence value F1 of each well is thus determined at a given, constant time. 15 μl of a KCl solution are then added to each well (final concentration of potassium ions 92 mM). The change in fluorescence intensity is subsequently monitored until all the relevant values have been obtained (mainly 5-30 min). At a given time post KCl application, a fluorescence value F2 is determined, in this case at the time of the fluorescence peak.
For calculation, the fluorescence intensity F2 is corrected for the fluorescence intensity F1, and the activity (ΔF/F) of the target compound on the potassium channel is determined as follows:
In order to determine whether a substance has agonistic activity,
[formula] can be related to
[formula] of control wells.
[formula] is determined by adding to the well only the buffer solution instead of the test substance, determining the value F1K of the fluorescence intensity, adding the potassium ions as described above, and measuring a value F2K of the fluorescence intensity. F2K and F1K are then calculated as follows: […]
A substance has an agonistic activity on the potassium channel if
[formula] is greater than
Independently of the comparison of
[formula] it is possible to conclude that a target compound has agonistic activity if
(§1) [formula] increases dose dependently. Calculations of EC50 and IC50 values are carried out with the aid of ‘Prism v4.0’ software (GraphPad Software™) Method II. Low-Intensity Tail Flick Test (Rat)

[2] = tested on: withdrawal reflex of the rat tail (tail flick) in response to a radiant heat beam; assay: Low-intensity tail flick test (rat); type: in vivo; conditions: po, peroral, read-out: Low intensity tail flick, rat, peroral, % MPE (dose [mg/kg])
Experimental: as §1
In the low-intensity tail flick test, the determination of the antinociceptive effect of the compounds according to the invention towards an acute noxious thermal stimulus is carried out by measuring the withdrawal reflex of the rat tail (tail flick) in response to a radiant heat beam (analgesia meter; model 2011 of the company Rhema Labortechnik, Hofheim, Germany) according to the method described by D'Annour and Smith (J. Pharm. Exp. Ther. 72, 74 79 (1941). To this end, the rats were placed in a plexiglas restrainer, and a low-intensity radiant heat beam (48° C.) was focused onto the dorsal surface of the tail root. The stimulus intensity was adjusted to result in a mean pre-drug control withdrawal latency of about 7 s, thus also allowing a supraspinal modulation of the spinally mediated acute nociceptive reflex. A cutoff time of 30 s was applied to avoid tissue damage. Male Sprague-Dawley rats (Janvier, Le Genest St. Isle, Frankreich) with weights of 200-250 g were used. 10 rats were used per group. Before administration of a compound according to the invention, the animals were pre-tested twice in the course of five minutes and the mean of these measurements was calculated as the pre-test mean. The antinociceptive effect was determined at 20, 40 and 60 min after peroral compound administration. The antinociceptive effect was calculated based on the increase in the tail withdrawal latency according to the following formula and is expressed as percentage of the maximum possible effect (MPE [%]): MPE=[(T1−T0)/(T2−T0)]*100
In this, T0 is the control latency time before and T1 the latency time after administration of the compound, T2 is the cutoff time and MPE is the maximum possible effect. Employing variant analysis (repeated measures ANOVA) allowed testing of statistically significant differences between the compounds according to the invention and the vehicle group. The significance level was set to p≦0.05. To determine the dose dependency, the particular compound according to the invention was administered in 3-5 logarithmically increasing doses, including a threshold dose and a maximum effective dose, and the ED50 values were determined with the aid of regression analysis. The ED50 calculation was performed at the time of maximum efficacy (usually 20 min after administration of the compounds).

SMILES | pEC50 [1] | Emax [1] [%] | inhibition in vivo at 10 mg/kg [2] [%] | inhibition in vivo at 6.81 mg/kg [2] [%]
CCCc1nc2cc(C(F)(F)F)ccc2c(C)c1C(=O)NCc1ccc(F)cc1 [Example 3, N-[(4-fluorophenyl)-methyl]-4-methyl-2-propyl-7-(trifluoromethyl)-quinoline-3-carboxylic acid amide] | 7.37 | 126 | 51 | 
CCc1nc2cc(C(F)(F)F)ccc2c(C)c1C(=O)NCc1cccc(F)c1 [Example 6, 2-Ethyl-N-[(3-fluorophenyl)-methyl]-4-methyl-7-(trifluoromethyl)-quinoline-3-carboxylic acid amide] | 6.75 | 177 |  | 51
Cc1c(C(=O)NCc2ccc(F)cc2)c(C(C)C)nc2cc(C(F)(F)F)ccc12 [Example 7, N-[(4-Fluorophenyl)-methyl]-2-isopropyl-4-methyl-7-(trifluoromethyl)-quinoline-3-carboxylic acid amide] | 7.19 | 181 | 54 | 
Cc1c(C(=O)NCc2cccc(F)c2)c(C(C)C)nc2cc(C(F)(F)F)ccc12 [Example 8, N-[(3-Fluorophenyl)-methyl]-2-isopropyl-4-methyl-7-(trifluoromethyl)-quinoline-3-carboxylic acid amide] | 7.28 | 185 | 65 | 
Cc1c(C(=O)NCc2ccc(F)cc2)c(C2CC2)nc2cc(C(F)(F)F)ccc12 [Example 9, 2-Cyclopropyl-N-[(4-fluorophenyl)-methyl]-4-methyl-7-(trifluoromethyl)-quinoline-3-carboxylic acid amide] | 6.90 | 161 | 15 | 

Continued, in another order:

pEC50 [1] | Emax [1] [%] | SMILES | inhibition in vivo at 10 mg/kg [2] [%] | inhibition in vivo at 6.81 mg/kg [2] [%]
7.04 | 182 | Cc1c(C(=O)NCc2cccc(F)c2)c(C2CC2)nc2cc(C(F)(F)F)ccc12 [Example 10, 2-Cyclopropyl-N-[(3-fluorophenyl)-methyl]-4-methyl-7-(trifluoromethyl)-quinoline-3-carboxylic acid amide] |  | 43
6.20 | 117 | COCc1nc2cc(C(F)(F)F)ccc2c(C)c1C(=O)NCc1cccc(F)c1 [Example 15, N-[(3-fluorophenyl)-methyl]-2-(methoxymethyl)-4-methyl-7-(trifluoromethyl)-quinoline-3-carboxylic acid amide] | 9 | 
6.41 | 96 | COCc1nc2cc(C(F)(F)F)ccc2c(C)c1C(=O)NCc1ccc(F)cc1 [Example 16, N-[(4-Fluorophenyl)-methyl]-2-(methoxymethyl)-4-methyl-7-(trifluoromethyl)-quinoline-3-carboxylic acid amide] | 21 | 
6.72 | 163 | Cc1c(C(=O)NCc2ccc(F)cc2)c(C(C)C)nc2cc(C#N)ccc12 [Example 40, 7-Cyano-N-[(4-fluorophenyl)-methyl]-2-isopropyl-4-methyl-quinoline-3-carboxylic acid amide] |  | 
